Laboratory results reported in patent EP1566447A1, “Glimepiride- and insulin-induced glycosylphosphatidylinositol-specific phospholipase C regulation” (priority 2004, dated 2005).

Assays:
[1] = system: GPI-PLC of hcDIGs from rat adipocytes; test: adipocyte GPI-PLC assay (cleavage of AChE, TX-114 partitioning); type: biochemical
Protocol: Biophys. […] Each reaction mixture was subjected to TX-114 partitioning (see below).
After incubation for 1 h on ice, the mixture was layered onto a cushion of 0.4 ml of 0.25 M sucrose and 25 mM Tris/HCl (pH 7.4) on ice.
Cleavage rate was calculated from the amount of hydrophilic AChE and aP activity recovered with the TX-114-depleted phase upon TX-114 partitioning.

Pancreatic lipase (PL) = biological target: T1, Pancreatic lipase (PL) (Sus scrofa, UniProt P00591); test: selectivity: pancreatic lipase assay; type: biochemical, porcine; details: 50 µM
T1 construct: crude porcine pancreatic lipase (PL); purchased Sigma/Aldrich (Deisenhofen, Germany); host or cells: porcine pancreas (crude preparation)
T1 sequence (P00591 1-450): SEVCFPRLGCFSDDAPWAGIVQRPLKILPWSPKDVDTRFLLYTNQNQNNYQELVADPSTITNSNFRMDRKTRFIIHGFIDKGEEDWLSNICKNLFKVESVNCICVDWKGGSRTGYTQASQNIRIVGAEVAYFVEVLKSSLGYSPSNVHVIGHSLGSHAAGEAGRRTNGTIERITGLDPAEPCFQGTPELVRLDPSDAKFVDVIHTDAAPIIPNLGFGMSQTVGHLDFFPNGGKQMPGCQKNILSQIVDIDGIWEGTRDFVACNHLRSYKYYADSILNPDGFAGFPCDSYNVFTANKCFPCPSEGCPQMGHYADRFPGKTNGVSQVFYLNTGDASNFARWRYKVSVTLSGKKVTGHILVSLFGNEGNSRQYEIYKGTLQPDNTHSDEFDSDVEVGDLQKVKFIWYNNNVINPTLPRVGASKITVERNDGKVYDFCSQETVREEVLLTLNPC
T1 sequence (P02703 23-112 partner): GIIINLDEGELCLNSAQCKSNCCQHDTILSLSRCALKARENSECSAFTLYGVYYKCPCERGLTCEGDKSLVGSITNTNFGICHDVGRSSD
Protocol: (§1) Hormone-sensitive lipase (HSL) and lipoprotein lipase (LPL) were measured using a radiolabeled triolein droplet emulsion as described in "Vertesy et al., (2002) Journal Antibiotics 55:480-494". Pancreatic lipase (PL) was determined by incubation of 0.25 mmol tributyrin in 2 ml of 5 mM Tris/HCl (pH 6.5), 6 mM sodium taurodeoxycholate, 150 mM NaCl, 1 mM CaCl2 with porcine PL and colipase in the same buffer using a recording pH stat (stirring at 1000 rpm at 25°C) with the pH adjusted to 6.5. PC-PLC was assayed by incubation of 0.2 ml of 10 mM dipalmitoyllecithin, 0.1 ml of 10 mM SDC and 0.1 ml of 0.03 M CaCl2 with bacterial PC-PLC (in 50 mM Tris/HCl, pH 7.5, 0.1 % BSA) for 10 min at 37°C. The reaction was terminated by addition of 0.1 ml of 50 % TCA and subsequently of 2.5 ml of […]. After centrifugation (1500xg, 15 min), 0.2-ml portions of the upper methanol/water phase (~ 1.33 ml) was removed, supplemented with 0.5 ml of 60 % HClO4, then heated at 170°C for 1 h and finally analyzed for inorganic phosphate. Mammalian PI-PLC was measured by incubation of 0.1 ml of 10 mM PI, 0.1 ml of 0.8 % sodium deoxycholate, 0.1 % BSA, 0.2 ml of 100 mM sodium borate (pH 7.5) and rat liver PI-PLC for 20 min at 37°C. The reaction was terminated and further processed as described for the PC-PLC. […] Radioactive phosphatidic acid was detected by phosphorimaging. […]

rat liver PI-PLC = test: selectivity: mammalian PI-PLC assay; type: biochemical; details: 50 µM
Protocol: as §1

cabbage PLD = test: selectivity: PLD assay; type: biochemical; details: 50 µM
Protocol: as §1

[2] = biological target: phospholipase A2 (honey bee venom) (Apis mellifera, UniProt P00630); type: biochemical; details: 50 µM
Sequence of phospholipase A2 (honey bee venom) (P00630 34-167 limits assumed): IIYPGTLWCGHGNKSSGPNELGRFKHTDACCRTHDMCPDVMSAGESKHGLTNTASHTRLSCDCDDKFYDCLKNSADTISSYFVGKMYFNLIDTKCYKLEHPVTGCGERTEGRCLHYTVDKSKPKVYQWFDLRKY

GPI-PLC = details: read-out: IC50 for inhibition of the GPI-PLC; isolated intact hcDIGs; Fig. 4 Panels B, D

CCCCCCCCCCCCP1(=O)O[C@@H]2[C@H](O)[C@@H](O)[C@H](O)[C@@H](O)[C@@H]2O1 (mixture of isomers) [GPI-2350, myo-inositol-1,2-cyclo-dodecylphosphonic acid]
inhibition % at 1 mM ([1]; 1 mM, hcDIGs from rat adipocytes): 95 ± 11%
IC50 ([1]; hcDIGs from rat adipocytes, inhibitor 0.05 µM - 1 mM): 200 to 500 nM
lipolytic cleavage toward AChE after pretreatment and washing ([1]; hcDIGs treated with 50 µM, reisolated, extensively washed, assayed without inhibitor, data not shown): only low lipolytic cleavage
effect on lipase activity (Pancreatic lipase (PL)): not significantly affected
effect on phospholipase activity (rat liver PI-PLC): not significantly affected
effect on phospholipase activity (cabbage PLD): not significantly affected
effect on phospholipase activity [2]: not significantly affected
IC50 (GPI-PLC): 1000 nM
